# In patent publication US20080139624A1, “Oral Dosage Form Comprising Rosiglitazone” (priority 2005, published 2008):
# Assay: pH dependent solubility
# Format: physicochemical
# Details: acidic conditions of the stomach (around pH 2) vs near neutral conditions of the lower intestine (around pH 7)
smiles,measurement,value
"CN(CCOc1ccc(CC2SC(=O)NC2=O)cc1)c1ccccn1 (stereo not shown) [Compound A, 5-[4-[2-(N-methyl-N-(2 pyridyl)amino)ethoxy]benzyl]thiazolidine-2,4-dione]",pH dependent solubility,marked pH dependent solubility
